The record followed here is patent US8865700B2, “Collagen stimulators and their use in the treatment of skin” (Avon Products, Inc., priority 2012, dated 2014).

The assay deals with Normal Human dermal fibroblasts. Briefly: Procollagen assay (Procollagen Type-I C-Peptide EIA) in conditioned media of treated fibroblasts. It counts as cell-based. The note with it: 0.0005% compound, 48 hours, ELISA, p<0.05. The protocol: Normal Human dermal fibroblasts were grown in DMEM (Mediatech; cat. #: 15-013-CV) containing 10% Fetal Bovine Serum (Perbio; cat. #: SH30070.03), Penicillin/Streptomycin (Mediatech, Cat #30-001-C1), L-Glutamine (Mediatech; cat. #: 25-005-CI) at 37° C. and 10% CO2. Cells were stripped of serum overnight, followed by treatment with the compound of Formula I(b) (0.0005%) or vehicle (DMSO), in the absence of serum for 48 hours.
Reading was measured at 450 nm using a spectrophotometer.
Human dermal fibroblasts treated with 0.0005% the compound of Formula I(b) for 48 hours were analyzed by ELISA for expression levels of pro-collagen. […] All values are statistically significant at p<0.05.

With `N#Cc1cccc(CN2CCNC(=O)CC2c2nccs2)c1` (centres unmarked) [Formula I(b)], the “pro-collagen expression level relative to control, vehicle treated cells” value is “significant increase”. The molecule further had a Procollagen (serum-free, relative to vehicle (DMSO) control = 100%, 450 nm) of 146%.
